Consider 2 molecules from patent US5010083A, “2,6-methano-1,3-benzodiazocine compounds which have useful pharmaceutical utility” (priority 1989, dated 1991).

Molecules are shown by their SMILES. Where a name gives a salt, the structure may show the parent alone.

The experiment deals with T1, brain acetylcholinesterase (AChE) (Rattus norvegicus, UniProt P37136).
T1 construct: corpora striata dissected free, weighed and homogenized in 19 volumes; from tissue; host or cells: corpora striata of male Wistar rats, whole homogenate
T1 sequence (P37136 32-614): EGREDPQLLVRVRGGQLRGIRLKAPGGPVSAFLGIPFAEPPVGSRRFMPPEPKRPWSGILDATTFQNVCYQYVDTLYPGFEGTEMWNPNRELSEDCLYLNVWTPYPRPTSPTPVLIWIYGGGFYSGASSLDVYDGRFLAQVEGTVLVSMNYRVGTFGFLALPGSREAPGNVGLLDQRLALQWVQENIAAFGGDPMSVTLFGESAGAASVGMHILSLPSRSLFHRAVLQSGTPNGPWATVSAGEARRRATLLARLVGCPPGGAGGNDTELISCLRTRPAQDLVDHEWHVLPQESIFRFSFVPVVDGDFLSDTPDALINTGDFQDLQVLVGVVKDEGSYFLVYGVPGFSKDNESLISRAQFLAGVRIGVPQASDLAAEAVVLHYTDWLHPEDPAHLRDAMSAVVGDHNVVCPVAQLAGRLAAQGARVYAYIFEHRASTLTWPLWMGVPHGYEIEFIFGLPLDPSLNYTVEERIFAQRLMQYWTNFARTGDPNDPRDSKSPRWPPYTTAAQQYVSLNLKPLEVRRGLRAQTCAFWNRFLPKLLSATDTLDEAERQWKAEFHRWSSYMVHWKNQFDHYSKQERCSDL
Kind of experiment: In Vitro Inhibition of Acetylcholinesterase Activity in Rat Striatum. The experiment is classed as biochemical, rat (male Wistar). The source says:
Cholinesterases are found throughout the body, both in the brain and in serum. However, only brain acetylcholinesterase (AChE) distribution is correlated with central cholinergic innervation. […] We have determined in vitro inhibition of acetylcholinesterase activity in rat striatum according to the method described below.
The method described below was used in this invention for assaying anticholinesterase activity.
1. 0.05M Phosphate buffer, pH 7.2
(c) add (a) to (b) until pH reaches 7.2
(a) 9.9 mg 5,5-dithiobisnitrobenzoic acid (DTNB) (0.25 mM)
(b) 99 mg s-acetylthiocholine chloride (5 mM)
(c) q.s. to 100 ml with 0.05M phosphate buffer, pH 7.2 (reagent 1)
Male Wistar rats are decapitated, brains rapidly removed, corpora striata dissected free, weighed and homogenized in 19 volumes (approximately 7 mg protein/ml) of 0.05M phosphate buffer, pH 7.2 using a Potter-Elvehjem homogenizer. […]
Using the indicated instrument settings the ABA-100 automatically reads the color reaction and prints out the results in enzyme units after 15 minutes.
2. The enzyme activity can also be measured with a Gilford 250 spectrophotometer. […]
The uninhibited activity of the enzyme (tissue homogenate) is first determined. […] The reaction rate is determined by the slope of the recorded absorbance change. The actual rate (moles/liter/min) can be calculated as described in the following formula

Consider `CN1CCC2CC1N(C)c1ccc(OC(=O)NC3CCCCC3)cc12` (centres unmarked) [1,2,3,4,5,6-Hexahydro-1,3-dimethyl-2,6-methano-1,3-benzodiazocin-8-ol, cyclohexyl carbamate], for which the IC50 – broadly, the concentration that inhibits the measured activity by half – is 10.7 µM.

For `CNC(=O)Oc1ccc2c(c1)C1CCN(C)C(C1)N2C` (centres unmarked) [1,2,3,4,5,6-Hexahydro-1,3-dimethyl-2,6-methano-1,3-benzodiazocin-8-ol, methyl carbamate fumarate], half-maximal inhibition (IC50) required 0.058 µM.
